Test results as given in PubChem BioAssay (NCI).
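Step 1: Grow cells in 96-well plates. Step 2: Expose to compound for 48 hours at 5 concentrations. Step 3: Interpolate endpoints linearly; if unreached, use highest concentration. Here, GI50 denotes the concentration required for 50% inhibition of growth. TGI denotes the concentration required for complete inhibition of growth.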

Experiments:
Assay in all cases: NCI anticancer screen, dose series, 48 h
HL-60(TB) leukemia = test system: HL-60(TB) leukemia
UACC-62 melanoma = test system: UACC-62 melanoma
IGROV1 ovarian = test system: IGROV1 ovarian
NCI-H460 lung = test system: NCI-H460 lung
SNB-19 CNS = test system: SNB-19 CNS
COLO 205 colon = test system: COLO 205 colon
K-562 leukemia = test system: K-562 leukemia
M14 melanoma = test system: M14 melanoma
EKVX NSCLC = test system: EKVX NSCLC
SN12C renal = test system: SN12C renal
NCI-H226 lung = test system: NCI-H226 lung

SMILES | TGI (HL-60(TB) leukemia) [µM] | TGI (UACC-62 melanoma) [µM] | TGI (IGROV1 ovarian) [µM] | TGI (NCI-H460 lung) [µM] | TGI (SNB-19 CNS) [µM] | TGI (COLO 205 colon) [µM] | TGI (K-562 leukemia) [µM] | TGI (M14 melanoma) [µM] | TGI (EKVX NSCLC) [µM] | TGI (SN12C renal) [µM] | TGI (NCI-H226 lung) [µM] | GI50 (UACC-62 melanoma) [µM] | GI50 (NCI-H460 lung) [µM] | GI50 (SNB-19 CNS) [µM] | GI50 (COLO 205 colon) [µM] | GI50 (K-562 leukemia) [µM] | GI50 (M14 melanoma) [µM] | GI50 (NCI-H226 lung) [µM] | GI50 (EKVX NSCLC) [µM]
O=C(NN1C(=O)C(Cl)C1c1ccc([N+](=O)[O-])cc1)c1ccccc1O (configuration not stated) | > 100 | > 100 | > 100 | > 100 | > 100 | > 100 | > 100 | > 100 | > 100 | > 100 | – | – | – | – | – | – | – | – | –
Cn1nc2ccc3nccc(NCCNCCCl)c3c2n1 | > 100 | > 100 | > 100 | > 100 | > 100 | > 100 | > 100 | > 100 | > 100 | > 100 | > 100 | – | – | – | – | – | – | – | –
CCOC(=O)C1CCn2c(nc3c(=O)n(C)c(=O)n(C)c32)S1 (configuration not stated) | > 100 | > 100 | > 100 | > 100 | > 100 | – | > 100 | > 100 | > 100 | > 100 | > 100 | – | – | – | – | – | – | – | –
CC(=O)O[C@H]1CC[C@H]2[C@@H]3CC[C@H]4Nc5c(cnn5S(C)(=O)=O)C[C@]4(C)[C@H]3CC[C@]12C | > 100 | > 100 | > 100 | > 100 | > 100 | > 100 | > 100 | > 100 | – | > 100 | > 100 | – | – | – | – | – | – | – | –
COc1cc(C2c3cc4c(cc3[C@@H](Nc3ccc(N5CCOCC5)cc3)C3COC(=O)[C@H]23)OCO4)cc(OC)c1O (some centres not stated) | 0.376 | 3.91 | 26 | 1.14 | 2.72 | 4.94 | 5.01 | – | 5.06 | 2.12 | 2.9 | – | – | – | – | – | – | – | –
O=C(/C=C/c1ccsc1)c1ccc(Cl)s1 | 57.2 | > 100 | > 100 | > 100 | > 100 | > 100 | – | > 100 | > 100 | > 100 | > 100 | – | – | – | – | – | – | – | –
CN(C)S(=O)(=O)c1cccc(-c2nc3sc4c(c3c(=O)[nH]2)CCCC4)c1 | – | > 100 | – | > 100 | > 100 | > 100 | > 100 | > 100 | > 100 | – | > 100 | > 100 | 0.931 | 2.91 | > 100 | > 100 | > 100 | 2.38 | > 100
